ChEMBL document CHEMBL5576088, “Skin- and airway-deliverable TRPA1 inhibitor” (Bioorg Med Chem, 2024)
Each block holds one compound with its values, some of them ahead of it. Calls of active or inactive are those of the source. No cut-off for these calls is given here.

Columns and labels:
[1] = biological target: T1, Transient receptor potential cation channel subfamily A member 1 (Homo sapiens, UniProt O75762); test: Antagonist activity at human TRPA1 expressed in HEK293 cells assessed as inhibition of AITC-induced intracellular Ca2+ flux in presence of 5 uM AITC by Fluo4-AM dye based fluorescence analysis; format: cell-based
T1 sequence (O75762 whole entry): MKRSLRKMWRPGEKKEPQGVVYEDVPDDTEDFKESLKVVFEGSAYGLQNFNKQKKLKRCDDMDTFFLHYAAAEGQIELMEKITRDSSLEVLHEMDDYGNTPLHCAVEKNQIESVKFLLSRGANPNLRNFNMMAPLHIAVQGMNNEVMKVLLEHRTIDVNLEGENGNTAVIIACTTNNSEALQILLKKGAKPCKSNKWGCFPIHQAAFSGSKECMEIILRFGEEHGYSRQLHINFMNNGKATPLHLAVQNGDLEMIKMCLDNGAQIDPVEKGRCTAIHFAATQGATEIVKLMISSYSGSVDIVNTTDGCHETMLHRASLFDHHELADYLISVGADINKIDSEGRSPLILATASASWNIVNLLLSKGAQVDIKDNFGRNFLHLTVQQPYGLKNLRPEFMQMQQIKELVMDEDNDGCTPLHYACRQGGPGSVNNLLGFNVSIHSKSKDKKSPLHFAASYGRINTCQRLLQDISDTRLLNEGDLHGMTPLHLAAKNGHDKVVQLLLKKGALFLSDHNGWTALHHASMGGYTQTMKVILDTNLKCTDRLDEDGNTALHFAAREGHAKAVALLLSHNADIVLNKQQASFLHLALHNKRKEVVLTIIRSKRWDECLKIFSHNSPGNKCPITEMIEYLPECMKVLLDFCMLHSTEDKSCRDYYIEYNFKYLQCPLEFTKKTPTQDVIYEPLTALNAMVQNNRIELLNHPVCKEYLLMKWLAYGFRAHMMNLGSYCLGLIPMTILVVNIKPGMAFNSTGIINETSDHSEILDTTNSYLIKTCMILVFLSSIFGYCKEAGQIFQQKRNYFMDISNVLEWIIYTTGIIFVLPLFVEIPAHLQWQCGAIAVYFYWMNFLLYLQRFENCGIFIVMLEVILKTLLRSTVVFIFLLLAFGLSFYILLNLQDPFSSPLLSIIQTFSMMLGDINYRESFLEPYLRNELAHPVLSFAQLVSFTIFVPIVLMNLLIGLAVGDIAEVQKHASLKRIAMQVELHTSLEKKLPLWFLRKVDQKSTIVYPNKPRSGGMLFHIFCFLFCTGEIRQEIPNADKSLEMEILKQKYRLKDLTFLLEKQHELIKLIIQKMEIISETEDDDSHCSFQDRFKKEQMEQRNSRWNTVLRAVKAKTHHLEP

[2] = test system: Homo sapiens; test: Inhibition of methylparaben/phenoxyethanol-induced sensory irritation in human at 0.2% applied topically and measured for 8 mins; format: functional, organism-based; settings: route top
[3] = biological target: T1, Transient receptor potential cation channel subfamily A member 1; test: Antagonist activity at full length human TRPA1 expressed in HEK293 cells assessed as inhibition of AITC-induced intracellular Ca2+ flux in presence of 10 uM AITC by Fluo4-AM dye based fluorescence analysis; format: cell-based
[4] = biological target: T1, Transient receptor potential cation channel subfamily A member 1; test: Antagonist activity at wildtype human TRPA1 expressed in HEK293 cells assessed as inhibition of AITC-induced intracellular Ca2+ flux at 100 uM in presence of 5 uM AITC by Fluo4-AM dye based fluorescence analysis; format: cell-based; settings: filed as antagonist
[5] = biological target: T1, Transient receptor potential cation channel subfamily A member 1; test: Antagonist activity at human TRPA1 expressed in HEK293T cells assessed as inhibition of AITC-induced current by whole cell patch clamp analysis; format: cell-based

IC50 [1]: 21.8 µM
Structure (SMILES): CCC(O)C(C)Cc1ccccc1 (mixture of isomers)

IC50 [1]: 17 µM
Structure (SMILES): CC(CO)C(C)Cc1ccccc1 (mixture of isomers)

IC50 [3]: 529 µM
Structure (SMILES): CC1(C)C2CCC1(C)C(O)C2 (racemic) [BORNEOL]
inhibition [2]: inactive

IC50 [1]: 19.8 µM
Structure (SMILES): CC(CCO)CC(C)c1ccccc1 (mixture of isomers)

Activity [4]: Active
IC50 [3]: 1.72 µM
Structure (SMILES): CC(=C\c1ccc(Cl)cc1)/C(C)=N/O [AP18 5]

IC50 [5]: 120 µM
Structure (SMILES): CC1(C)[C@@H]2CC[C@@]1(C)[C@](C)(O)C2

IC50 [1]: 32.1 µM
Structure (SMILES): C/C(=C\C(C)c1ccccc1)CO (racemic)

Activity [4]: Active
Structure (SMILES): CC(C)c1ccc(NC(=O)Cn2cnc3c2c(=O)n(C)c(=O)n3C)cc1
